The text below walks through data of US20170343554A1, “METHODS OF MEASURING ERBB SIGNALING PATHWAY ACTIVITY TO DIAGNOSE AND TREAT CANCER PATIENTS” (Celcuity LLC, priority 2014, published 2017).

In experiment [1] the test system is cells from two HER2 overexpressing breast cancer patients (Patient B1 and B4). In words: CELx Pathway Shutdown test, impedance biosensor CReMS, EGF perturbation (Example 1). In kind it is cell-based, human. An excerpt:
The change in impedance for a particular well is proportional to the number of cells and type of attachment the cells have with the impedance microplate. Changes in impedance indicate a response to perturbation of these small cell populations.
Prior to addition to the impedance microplate, the cells were removed from their growth container with versene, counted, and re-suspended in media without serum or other growth factors.

Experiment [2] deals with BT474 breast cancer cell line cells. Briefly: Cell attachment signal (CAS) diagnostic assay, impedance biosensor (Example 6). In kind it is cell-based. The settings on record: lapatinib with NRG1, fulvestrant with estradiol. The method, then: (§1) The analyte of the diagnostic test used herein is the cell attachment signal (CAS) that viable patient cells generate, alone or in the presence of cell antagonists, when placed in the well of a microplate and analyzed with an impedance biosensor. For every test, the CAS is measured and analyzed for […] of patient cell samples. • 1) Patient cells only (C) • 2) Patient cells+pathway factor(s) (CF) • 3) Patient cells+pathway factor(s)+confirming agent (CCF)
(§2) To detect whether the signaling pathway is functioning normally, the signaling pathway in a patient's diseased cells are perturbed and the resulting activity is compared to the effect the perturbant has on the signaling pathway activity of their healthy cells or the effect of perturbant on the signaling pathway activity of healthy cells from a patient or patients known to be free of disease. The assay measures the change in CAS between the CF and C cells in a patient's healthy cells relative to the change in CAS between the CF and C cells in the diseased cells. Alternatively, the assay can measure the change in CAS between the CF and the C cells in a patient's diseased cells that can be compared to a known result from a patient or pool of patients known to be free of disease. Essentially, if the signaling pathways are abnormal, the CAS change between the healthy and diseased cells will be different. The measurement of change in CAS between CF and CCF diseased cells from a subject provides confirmation that the CF CAS represents activity of the signaling pathway of interest. In the case where CCF is not changed relative to CF, this would indicate that the signaling pathway activity in CF represents some other signaling pathway activity that is not related to the condition of interest. In these cases, the patient would not be considered to have the disease being analyzed.
(§3) Studies were performed confirming the ability of this cell analysis method to measure specific pathway activity in primary non-transformed malignant and healthy epithelial cells as well as cell lines. Representative data from these studies is shown in FIGS. 10 and 11 for two critical pathways involved in breast cancer, PI3K and ERα.

The subject of experiment [3] is Patient 54 primary breast cancer cells. The description is as above. The class given is cell-based, human. Conditions: Patient 54 primary tumor cells, lapatinib with NRG1, fulvestrant with estradiol. The procedure:
as §1, §2, §3

For experiment [4], the system named is cancer patients (Patients B1, B2, B4, C1, C2). The settings on record: cited from earlier work.
Experiment [5] concerns HER2 signaling pathway activity in viable breast cancer cells of non-overexpressed HER2 patients. Briefly: CELx test of HER2 signaling pathway activity by CAS with perturbing and confirming agents (Example 7). The class given is cell-based, human. Conditions: for % Attenuation of NRG1 Signal: non-overexpressing HER2, HER2-driven disease, clinically relevant single concentration; for attenuation of the NRG1 and EGF driven activity, comparison in words: five patients of Table 17, single concentration. An excerpt:
Analyte and measurand: The analyte of the diagnostic test used herein is the cell attachment signal (CAS) that viable patient cells generate, alone or in the presence of specific cell signaling pathway perturbants, when placed in the well of an impedance biosensor microplate and continuously measured for electrical impedance. For every test, the CAS is continuously measured and used in the measurand algorithm for up to four portions of patient cell samples from the same patient. • 1. Patient cells only (C) • 2. Patient cells+perturbing pathway factor 1 (CF1) • 3. Patient cells+perturbing pathway factor 2 (CF2) (if necessary) • 4. Patient cells+perturbing pathway factor(s)+Confirming agent (CCF)
The CAS is quantified for each of the up to four portions of patient samples tested (C, CF1, CF2, CCF). To quantify the signaling pathway activity of a patient's diseased cells, the CAS measured in the CF1 and/or CF2 portions is compared to the CAS measured in the C portion. This enables determination of the change in CAS between the CF and C sample portions relative to the change in CAS between the CCF and CF sample portions to confirm how much of the change between CF and C is related to the signaling pathway of interest.
In using this confirming agent, the difference between the CAS of CF1 and/or CF2 and C can be correctly apportioned to HER2 participation. When this confirming agent is applied to cell samples before the perturbing agent, the perturbing agent is blocked from HER2-receptor-related activities thereby generating a CAS value for CCF below the CF1 and/CF2 CAS values by an amount proportional to the participation of the HER2 receptor in the CF1 and/or CF2 change relative to C.
Standard media based on DMEM/F12 without serum, with antibiotics (e.g. penicillin, streptomycin, amphotericin), and HEPES buffer were purchased and used as delivered from VWR (Radnor, Pa.) or Life Technologies (Grand Island, N.Y.).
The commercial-source cell lines were received on dry ice and cultured according to recommendation by the commercial provider. […] Prior to addition to the impedance microplate, the cells were removed from their growth container with trypsin/EDTA solution, counted, and re-suspended in media with antibiotics, without serum, or other growth factors.
The test procedure used (hereinafter referred to as CELx) comprised the following steps, all performed in 5% CO2, 85% humidity, at 37° C.: • 1. Cell Seeding: 180 uL aliquots containing 15,000 viable epithelial cells from each patient or cell line in mammary epithelial growth media with antibiotics, without serum, or other growth factors were distributed to each designated well (C, CCF, CF1, CF2) of an impedance microplate. Impedance was continuously measured throughout steps 2-4 described below. • 2. Confirming agent (20 uL) was added six hours after seeding to pre-specified CCF wells for each cell sample. […] Perturbing Factors were added (20 uL) 18 hours after seeding to pre-specified CF wells for each sample. Wells not receiving perturbing factor received media as control. • 4. Continuous impedance recordings were made for each test well for each patient typically for at least 15 hours after the perturbing agents were added.

Experiment [6] concerns cells from two breast cancer patients (Patients B1 and B2). In words: CELx Anti-Proliferative test, impedance biosensor CReMS (Example 2). The class given is cell-based, human. The settings on record: for responsiveness, CReM output (cell index) compared to control cells: continuous recording 48-72 hours. The method, then:
A CELx Anti-Proliferative test was performed using cells from two breast cancer patients (Patients B1 and B2) and the drug Paclitaxel. The physiologic change of the B land B2 cells during the test was measured with an impedance biosensor CReMS and the output from the CReMS is recorded in FIGS. 2A and 2B. The comparison of the CELx test results and the third party clinical reference is recorded in FIG. 2C.
The CReMS, microplate, reagents, and buffers used in Example 1 are the same as those employed in Example 2, except for the therapeutic agent tested. In Example 2, the therapeutic agent, paclitaxel, was tested. Paclitaxel was purchased from Selleck Chemicals (TX, USA).
Breast Cancer cells from Patients B1 and B2 were utilized and handled in the same manner as described in Example 1.
Between 6,000-12,000 cells in each well were seeded onto the impedance microplate containing 120 uL settling media with serum. Forty microliters of the drug paclitaxel were added to one set each of the B1 and B2 cells; another control set of B1 and B2 cells received no drug. The CReMS recording of physiologic change was maintained continuously from when the cells were first seeded on the microplate through complete cellular response, which was between 48-72 hours. The test was performed at 37° C., 5% CO2 and at 75% relative humidity.

The subject of experiment [7] is breast cancer patient cells. In words: CELx Pathway Shutdown single drug tests, impedance biosensor CReMS (Example 4). In kind it is cell-based, human. Conditions: one patient breast cancer cell sample expected to be a responder (FIG. 8B). The procedure:
The physiologic change of the cells and drugs tested was measured with an impedance biosensor CReMS and the summary output from the CReMS is recorded in FIG. 4.
In those experiments involving a combination of drugs, the procedures described in Example 3 were utilized. The list of patient cells and the drug tested with the cells is characterized in FIG. 4.

In experiment [8] the test system is MAPK signaling pathway activity of cell sample C54. In words: CAS measurement after culture in fresh or non-fresh base media (Example 8). In kind it is cell-based. The method, then:
Many cell screening assays prescribe a simplified media-buffer that cells are placed in before and during the short time they are tested. The present invention with viable primary patient cells is performed with a base media used to maintain viable primary cell samples such that the cell population remains viable and retains its heterogeneity of individual cell types and a normal distribution of cells representing the different phases of the cell cycle during the complete test time of continuous measurement. […] A further aspect of the method includes replacing the base media with fresh base media within 72 hours of initiating contact with the perturbing or confirming agents.
The data highlights the importance of culturing the cells in fresh base media before a cell sample is contacted with a perturbing or confirming agent.

Where two headings read alike, the source gives them in different places.

Consider `CS(=O)(=O)CCNCc1ccc(-c2ccc3ncnc(Nc4ccc(OCc5cccc(F)c5)c(Cl)c4)c3c2)o1` [Lapatinib], for which the “CELx Pathway Shutdown test prediction of patient response” value in experiment [1] (Patient B1) is recorded as “will respond”; in experiment [1] (Patient B4), “would respond”. The “effect of the confirming agent on the CAS generated by the pathway factor” value in experiment [2] is given as “reduces”; in experiment [2] (listed as lapatinib) it was “reduced”; in experiment [3], “reduces”; in experiment [3] (listed as lapatinib), “reduced”. For the same compound, the “responsiveness recorded by the third party clinical reference standard” value in experiment [4] (Patient B1 (breast cancer)) and in experiment [4] (Patient B4 (breast cancer)) was “responsive” in each case.
For `CCOc1cc2ncc(C#N)c(Nc3ccc(OCc4ccccn4)c(Cl)c3)c2cc1NC(=O)/C=C/CN(C)C` [Neratinib], the “% Attenuation of NRG1 Signal” value in experiment [5] (Patient R20) amounted to 104%; in experiment [5] (Patient R39), 107%; in experiment [5] (Patient R71), 100%; in experiment [5] (Patient R82), 105%; in experiment [5] (Patient R160) it was 118%. For the same compound, in experiment [5], the “attenuation of the NRG1 and EGF driven activity, comparison in words” value is recorded as “highest percentage attenuation”.
For the compound Pertuzumab, the results for the “% Attenuation of NRG1 Signal” value in experiment [5] (Patient R71) and in experiment [5] (Patient R160) were 68% and 95%, respectively. Further, the “attenuation of the NRG1 and EGF driven activity, comparison in words” value in experiment [5] is listed as “significant attenuation”. The “amount of pertuzumab inhibition of NRG1 driven activity, compared with SKBR3” value in experiment [5] (non-overexpressed HER2 patient sample R39 versus overexpressed HER2 cell line SKBR3) is on record as “greater”.
Take `CC(=O)O[C@H]1C(=O)[C@@]2(C)[C@H]([C@H](OC(=O)c3ccccc3)[C@]3(O)C[C@H](OC(=O)[C@H](O)[C@@H](NC(=O)c4ccccc4)c4ccccc4)C(C)=C1C3(C)C)[C@]1(OC(C)=O)CO[C@@H]1C[C@@H]2O` [Paclitaxel]: the “CELx Anti-Proliferative test prediction of patient response” value in experiment [6] (Patient B1) and in experiment [6] (Patient B2) was “will respond” in each case. Further, the “responsiveness, CReM output (cell index) compared to control cells” value in experiment [6] (Patient B1 cells) was “immediate and continuous responsiveness”; in experiment [6] (Patient B2 cells), “initial responsiveness”. The “time after which the CReM output reverses (test cells begin proliferating, no longer responsive)” value in experiment [6] (Patient B2 cells) was “roughly 24 hours”. Besides, the “responsiveness recorded by the third party clinical reference standard” value in experiment [4] (Patient B1 (breast cancer)) and in experiment [4] (Patient B2 (breast cancer)) was “responsive” throughout.
For the compound `C[C@]12CC[C@@H]3c4ccc(O)cc4C[C@@H](CCCCCCCCC[S+]([O-])CCCC(F)(F)C(F)(F)F)[C@H]3[C@@H]1CC[C@@H]2O` (stereo partly drawn) [fulvestrant], the “effect of the confirming agent on the CAS generated by the pathway factor” value is listed as “reversed” in experiment [2], “reduced” in experiment [2] (listed as Fulvestrant), “reversed” in experiment [3] and “reduced” in experiment [3] (listed as Fulvestrant).
On to `COc1cc2ncnc(Nc3ccc(F)c(Cl)c3)c2cc1OCCCN1CCOCC1` [Gefitinib], for which the “response in the CReMS testing” value in experiment [7] is listed as “did not show a response”.
In the case of “EGF: human epidermal growth factor, perturbing agent of HER1-HER2 receptor pairings”, in experiment [5] (Patient R112), the “% HER2 Participation, ((CF-C) − (CCF-C))/(CF-C))*100” value was found to be 25%; the “Measurand (HER2 signal), ~(CF-C) − (CCF-C)” value was 103; the “Total Ligand Signal (CF-C)” value was 398. Also, the “CAS (CCF), confirming factor + perturbing factor addition sample” value in experiment [5] (Patient R112, HER2 participation confirming factor added before the perturbing ligand) stood at 337. Also, the “signaling pathway activity (CAS) on perturbation” value in experiment [8] (cell sample C54 cultured in fresh base media prior to contact) is reported as “significant MAPK signaling pathway activity”. In addition, in experiment [8] (cell sample C54 cultured in non-fresh base media prior to perturbation), the “signaling pathway activity (CAS) on perturbation” value is reported as “no signaling pathway activity”.
